# Source: US10457707B2, “Substituted urea depsipeptide analogs as activators of the CLPP endopeptidase” (priority 2015, dated 2019)
# Read-outs that look alike come from different tables or passages of the source. *1 amine or outer side, *2 acyl side, *3 side chain or, on linkers, in order; H or OH if unused. Where a SMILES comes first, the peptide text is derived from it. Bridges are numbered along the chain shown (N, C = ends). [ ]: non-standard residue; d: D form. The star is where a group is joined. Phe(3,5-F2) = N[C@@H](Cc1cc(F)cc(F)c1)C(=O)O; NH(4-OCF3-phenyl) = FC(F)(F)Oc1ccc(N*)cc1; Pro(4S-Me) = C[C@@H]1CN[C@H](C(=O)O)C1; Pro(4R-Me) = C[C@H]1CN[C@H](C(=O)O)C1; NMeaThr = CN[C@H](C(=O)O)[C@H](C)O; NMeT = CN[C@H](C(=O)O)[C@@H](C)O; NH(4-Me-phenyl) = Cc1ccc(N*)cc1; aThr = C[C@H](O)[C@H](N)C(=O)O; CO = O=C([*:1])[*:2]
# Experiments:
# Sa-ClpP = molecular target: T1, Sa-ClpP (Staphylococcus aureus, UniProt Q2G036); assay: ADEP displacement fluorescence polarization assay (FP probe ADEP 2591); assay type: binding
# T1 construct: made in house; host or cells: E. coli BL21(DE3)
# T1 sequence (Q2G036 1-195): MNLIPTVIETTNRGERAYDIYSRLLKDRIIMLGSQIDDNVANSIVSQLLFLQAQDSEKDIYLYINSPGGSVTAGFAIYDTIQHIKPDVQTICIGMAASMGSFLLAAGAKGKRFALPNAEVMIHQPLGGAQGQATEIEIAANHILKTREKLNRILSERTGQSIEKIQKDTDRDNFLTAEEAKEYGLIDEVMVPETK
# In short: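 Probe displacement was measured in mP after compounds sat 120 min at room temperature with pre-equilibrated (1 h) Sa-ClpP (15 μM) and ADEP 2591 FP probe (50 nM) in pH 8.0 Tris-HCl with 2% DMSO. Data were scaled between DMSO and 200 μM ADEP 2378 and fit by variable-slope log-inhibitor regression.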
# [1] = test system: Bacillus subtilis, ATCC 23857; assay: Minimal inhibitory concentration assay (microbroth dilution); assay type: cell-based
# In short: (§1)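 Compound is serially diluted two-fold in the appropriate broth, and bacterial inoculum at about 10^5 cfu/mL is added so the highest final concentration is 200 μM. Plates stay overnight at 37 °C under aerobic conditions before growth is scored by eye.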
# [2] = test system: Staphylococcus aureus, ATCC 29213; assay: as above; assay type: cell-based; conditions: ATCC29213, read-out: Minimal Inhibitory Concentrations S. aureus ATCC 29213
# In short: as §1
# [3] = test system: Staphylococcus aureus, NRS70; assay: as above; assay type: cell-based
# In short: as §1
# [4] = test system: Streptococcus pyogenes, ATCC 700294; assay: as above; assay type: cell-based
# In short: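 Plates with two-fold compound dilution series in broth were incubated overnight, aerobically, at 37° C, following CLSI microdilution guidance.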
compound,measurement,setting,value
"C[C@H]1C[C@H]2C(=O)O[C@@H](C)[C@H](NC(=O)[C@H](Cc3cc(F)cc(F)c3)NC(=O)Nc3ccc(OC(F)(F)F)cc3)C(=O)N3CCC[C@H]3C(=O)N(C)[C@@H]([C@H](C)O)C(=O)N[C@@H](C)C(=O)N2C1 [Compound 203, (S)-3-(3,5-difluorophenyl)-N-((2S,6S,9S,11aS,17S,18S,20aS)-9-((S)-1-hydroxyethyl)-2,6,10,18-tetramethyl-5,8,11,16,20-pentaoxohexadecahydro-1H,5H,16H-dipyrrolo[2,1-c:2′,1′-l][1]oxa[4,7,10,13]tetraazacyclohexadecin-17-yl)-2-(3-(4-(trifluoromethoxy)phenyl)ureido)propanamide] ({NH(4-OCF3-phenyl)-CO}-[Phe(3,5-F2)][aThr]P[NMeaThr]A[Pro(4S-Me)]; ester 2-C)",IC50,"Sa-ClpP; displacement of FP probe ADEP 2591 from Sa-ClpP, read-out: ADEP Displacement IC50",6.4 ± 0.5 µM
same,MIC,"[1]; Bacillus subtilis, ATCC23857; read-out: Minimal Inhibitory Concentrations B. subtilis ATCC 23857",0.098 µM
same,MIC,[2],0.098 µM
same,MIC,"[3]; Staphylococcus aureus, NRS70; read-out: Minimal Inhibitory Concentrations S. aureus NRS70",0.049 µM
same,MIC,"[4]; Streptococcus pyogenes, ATCC700294; read-out: Minimal Inhibitory Concentrations S. pyogenes ATCC 700294",0.195 µM
"Cc1ccc(NC(=O)N[C@@H](Cc2cc(F)cc(F)c2)C(=O)N[C@@H]2C(=O)N3CCC[C@H]3C(=O)N(C)[C@@H]([C@@H](C)O)C(=O)N[C@@H](C)C(=O)N3C[C@H](C)C[C@H]3C(=O)O[C@H]2C)cc1 [Compound 38, (S)-3-(3,5-difluorophenyl)-N-((2R,6S,9S,11aS,17S,18S,20aS)-9-((R)-1-hydroxyethyl)-2,6,10,18-tetramethyl-5,8,11,16,20-pentaoxohexadecahydro-1H,5H,16H-dipyrrolo[2,1-c:2′,1′-l][1]oxa[4,7,10,13]tetraazacyclohexadecin-17-yl)-2-(3-(p-tolyl)ureido)propanamide] ({NH(4-Me-phenyl)-CO}-[Phe(3,5-F2)][aThr]P[NMeT]A[Pro(4R-Me)]; ester 2-C)",IC50,Sa-ClpP,6.52 ± 0.3 µM
same,MIC,"[1]; Bacillus subtilis, ATCC23857, read-out: Minimal Inhibitory Concentrations B. subtilis ATCC 23857",0.05 µM
same,MIC,[2],0.05 µM
same,MIC,"[3]; Staphylococcus aureus, NRS70, read-out: Minimal Inhibitory Concentrations S. aureus NRS70",0.05 µM
same,MIC,"[4]; Streptococcus pyogenes, ATCC700294, read-out: Minimal Inhibitory Concentrations S. pyogenes ATCC 700294",0.1 µM
